# Biological target: factor B (Homo sapiens, UniProt P00751)
# Experiment: factor B inhibition assay of Biological Example 1
# Type: biochemical
# Design: CVF-Bb complex prepared from purified cobra venom factor (1 μM), recombinant human complement factor B; made in house; host or cells: drosophila cells (factor B); E. coli (factor D used to form the complex)
# Conditions: IC50 (nM), assay of Biological Example 1 (Table 1)
# Sequence of factor B (P00751 260-764 limits assumed): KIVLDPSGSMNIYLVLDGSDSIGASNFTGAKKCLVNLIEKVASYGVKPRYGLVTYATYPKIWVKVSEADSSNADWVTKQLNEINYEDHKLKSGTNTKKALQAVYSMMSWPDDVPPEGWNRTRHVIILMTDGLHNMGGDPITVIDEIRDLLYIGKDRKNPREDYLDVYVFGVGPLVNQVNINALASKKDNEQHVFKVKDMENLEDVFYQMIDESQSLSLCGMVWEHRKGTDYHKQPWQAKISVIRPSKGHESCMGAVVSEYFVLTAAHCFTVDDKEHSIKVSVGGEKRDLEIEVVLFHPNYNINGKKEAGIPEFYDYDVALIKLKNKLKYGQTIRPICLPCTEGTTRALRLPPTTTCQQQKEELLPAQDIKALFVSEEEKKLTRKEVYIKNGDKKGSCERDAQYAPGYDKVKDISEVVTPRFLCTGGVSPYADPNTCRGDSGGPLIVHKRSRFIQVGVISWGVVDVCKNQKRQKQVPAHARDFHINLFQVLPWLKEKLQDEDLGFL
# Sequence of factor B (Q91132 23-649 partner limits assumed): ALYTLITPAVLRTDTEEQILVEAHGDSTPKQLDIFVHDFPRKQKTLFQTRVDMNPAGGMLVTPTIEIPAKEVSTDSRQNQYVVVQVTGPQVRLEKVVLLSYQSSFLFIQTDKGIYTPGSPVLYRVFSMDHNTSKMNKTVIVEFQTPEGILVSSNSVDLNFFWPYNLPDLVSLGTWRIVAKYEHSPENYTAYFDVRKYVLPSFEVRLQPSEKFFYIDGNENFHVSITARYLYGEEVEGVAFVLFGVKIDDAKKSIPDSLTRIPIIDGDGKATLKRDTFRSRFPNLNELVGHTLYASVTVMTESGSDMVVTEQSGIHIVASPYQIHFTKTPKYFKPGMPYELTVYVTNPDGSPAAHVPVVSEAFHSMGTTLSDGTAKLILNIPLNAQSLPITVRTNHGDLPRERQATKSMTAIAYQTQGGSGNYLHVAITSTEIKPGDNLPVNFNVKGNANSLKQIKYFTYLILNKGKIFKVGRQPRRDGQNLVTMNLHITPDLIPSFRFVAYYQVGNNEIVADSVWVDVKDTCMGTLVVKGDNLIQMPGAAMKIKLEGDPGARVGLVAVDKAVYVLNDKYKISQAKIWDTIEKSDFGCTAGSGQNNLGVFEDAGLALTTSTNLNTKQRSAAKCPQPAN
# Sequence of factor B (Q91132 733-984 partner limits assumed): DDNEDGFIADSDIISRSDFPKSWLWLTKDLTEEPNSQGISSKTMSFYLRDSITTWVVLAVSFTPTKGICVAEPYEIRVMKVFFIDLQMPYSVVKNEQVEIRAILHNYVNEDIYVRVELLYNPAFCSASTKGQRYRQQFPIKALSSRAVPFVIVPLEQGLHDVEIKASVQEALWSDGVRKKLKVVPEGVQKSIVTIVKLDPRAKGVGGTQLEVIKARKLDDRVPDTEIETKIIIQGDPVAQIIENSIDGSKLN
# Sequence of factor B (Q91132 1264-1642 partner limits assumed): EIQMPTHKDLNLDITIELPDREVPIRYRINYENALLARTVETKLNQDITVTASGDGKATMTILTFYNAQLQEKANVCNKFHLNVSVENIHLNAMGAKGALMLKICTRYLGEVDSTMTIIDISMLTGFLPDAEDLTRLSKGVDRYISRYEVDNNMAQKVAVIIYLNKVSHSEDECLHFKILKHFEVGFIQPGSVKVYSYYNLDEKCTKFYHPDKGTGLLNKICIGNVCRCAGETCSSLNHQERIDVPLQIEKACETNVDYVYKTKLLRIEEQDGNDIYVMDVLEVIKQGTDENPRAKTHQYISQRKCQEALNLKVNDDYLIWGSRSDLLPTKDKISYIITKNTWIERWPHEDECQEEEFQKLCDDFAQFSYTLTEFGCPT
row,Compound,IC50 [nM]
1,"CCc1cc(C)c2[nH]ccc2c1C(N)c1nc2cc(C#N)ccc2[nH]1 (single isomer, unassigned; (-)) [96-C b) (−), (−)-2-(amino(5-ethyl-7-methyl-1H-indol-4-yl)methyl)-1H-benzo[d]imidazole-5-carbonitrile]",70
2,"CCc1cc(C)c2[nH]ccc2c1C(C)(N)c1nc2cc(C#N)ccc2[nH]1 (single isomer, unassigned; (-)) [102-C b) (−), (−)-2-(1-amino-1-(5-ethyl-7-methyl-1H-indol-4-yl)ethyl)-1H-benzo[d]imidazole-5-carbonitrile]",10
3,"Cc1cc(C2CC2)c(C(C)(N)c2nc3cc(C#N)ccc3[nH]2)c2cc[nH]c12 (single isomer, unassigned; (-)) [102-D b) (−), (−)-2-(1-amino-1-(5-cyclopropyl-7-methyl-1H-indol-4-yl)ethyl)-1H-benzo[d]imidazole-5-carbonitrile]",8
4,"Cc1cc(Br)c(C(N)(c2nc3cc(C#N)ccc3[nH]2)C(F)(F)F)c2cc[nH]c12 (single isomer, unassigned; (-)) [105-B b) (−), (−)-2-(1-amino-1-(5-bromo-7-methyl-1H-indol-4-yl)-2,2,2-trifluoroethyl)-1H-benzo[d]imidazole-5-carbonitrile]",20
5,"CNC(c1nc2cc(C#N)ccc2[nH]1)(c1c(Br)cc(C)c2[nH]ccc12)C(F)(F)F (single isomer, unassigned; (-)) [106 b) (−), (−)-2-(1-(5-bromo-7-methyl-1H-indol-4-yl)-2,2,2-trifluoro-1-(methylamino)ethyl)-1H-benzo[d]imidazole-5-carbonitrile]",8
6,"CCc1cc(C)c2[nH]ccc2c1C(NC)(c1nc2cc(C#N)ccc2[nH]1)C(F)(F)F (single isomer, unassigned; (-)) [107-B b) (−), (−)-2-(1-(5-ethyl-7-methyl-1H-indol-4-yl)-2,2,2-trifluoro-1-(methylamino)ethyl)-1H-benzo[d]imidazole-5-carbonitrile]",3
7,"CCc1cc(C)c2[nH]ccc2c1C(N)(c1nc2cc(C#N)ccc2[nH]1)C(F)(F)F (single isomer, unassigned; (-)) [107-C b) (−), (−)-2-(1-amino-1-(5-ethyl-7-methyl-1H-indol-4-yl)-2,2,2-trifluoroethyl)-1H-benzo[d]imidazole-5-carbonitrile]",30
8,"Cc1cc(C2CC2)c(C(N)(c2nc3cc(C#N)ccc3[nH]2)C(F)(F)F)c2cc[nH]c12 (single isomer, unassigned; (-)) [107-D b) (−), (−)-2-(1-amino-1-(5-cyclopropyl-7-methyl-1H-indol-4-yl)-2,2,2-trifluoroethyl)-1H-benzo[d]imidazole-5-carbonitrile]",8
9,"CNC(c1nc2cc(C#N)ccc2[nH]1)(c1c(C2CC2)cc(C)c2[nH]ccc12)C(F)(F)F (single isomer, unassigned; (-)) [107-E b) (−), (−)-2-(1-(5-cyclopropyl-7-methyl-1H-indol-4-yl)-2,2,2-trifluoro-1-(methylamino)ethyl)-1H-benzo[d]imidazole-5-carbonitrile]",3
10,"COc1cc(C)c2c(c1C(C)(OC)c1nc3cc(C#N)ccc3[nH]1)CCN2 (single isomer, unassigned; (-)) [124 b) (−), (−)-2-(1-methoxy-1-(5-methoxy-7-methylindolin-4-yl)ethyl)-1H-benzo[d]imidazole-5-carbonitrile]",11
11,"COc1cc(C)c2[nH]ccc2c1C(O)c1nc2cc(C#N)ccc2o1 (single isomer, unassigned; (-)) [125-B b) (−), (−)-2-(hydroxy(5-methoxy-7-methyl-1H-indol-4-yl)methyl)benzo[d]oxazole-5-carbonitrile]",3
12,"COc1cc(C)c2[nH]ccc2c1C(O)(c1nc2cc(C#N)ccc2o1)C(F)(F)F (single isomer, unassigned; (-)) [128-B b) (−), (−)-2-(2,2,2-trifluoro-1-hydroxy-1-(5-methoxy-7-methyl-1H-indol-4-yl)ethyl)benzo[d]oxazole-5-carbonitrile]",3
13,"COc1cc(C)c2[nH]ccc2c1C(C)(N)c1nc2cc(C#N)ccc2o1 (single isomer, unassigned; (-)) [131-B b) (−), (−)-2-(1-amino-1-(5-methoxy-7-methyl-1H-indol-4-yl)ethyl)benzo[d]oxazole-5-carbonitrile]",52
14,"CCc1cc(C)c2[nH]cc(C#N)c2c1C(OC)c1nc2cc(C#N)ccc2[nH]1 (single isomer, unassigned; (-)) [Example 91, (−)-2-((3-Cyano-5-ethyl-7-methyl-1H-indol-4-yl)(methoxy)methyl)-1H-benzo[d]imidazole-5-carbonitrile]",420
15,Cc1cc(C)c2[nH]ccc2c1C(O)(c1nc2cc(C#N)ccc2[nH]1)C1CC1 (stereo not drawn) [79-H a)],110
16,Cc1cc(C(C)C)c(C(C)(N)c2nc3cc(C#N)ccc3[nH]2)c2cc[nH]c12 (stereo not drawn) [102-E a)],60
17,"COc1cc(C)c2[nH]ccc2c1Cc1nc2cc(C#N)ccc2[nH]1 [Example 20-C, 2-((5-Methoxy-7-methyl-1H-indol-4-yl)methyl)-1H-benzo[d]imidazole-5-carbonitrile]",60
18,[2H]C([2H])([2H])Oc1cc(C)c2[nH]ccc2c1Cc1nc2cc(C#N)ccc2[nH]1 [Example 20-D],80
19,Cc1cc(OC(C)C)c(Cc2nc3cc(C#N)ccc3[nH]2)c2cc[nH]c12 [Example 20-E],670
20,COCCOc1cc(C)c2[nH]ccc2c1Cc1nc2cc(C#N)ccc2[nH]1 [Example 20-F],5570
21,COc1cc(C)c2[nH]ccc2c1Cc1nc2cc(C#N)ccc2o1 [Example 20-G],120
22,COc1cc(C)c2[nH]ccc2c1Cc1nc2ccc(C#N)cc2o1 [Example 20-H],4370
23,"COc1cc(F)c2[nH]ccc2c1Cc1nc2cc(C#N)ccc2[nH]1 [Example 21-B, 2-((7-Fluoro-5-methoxy-1H-indol-4-yl)methyl)-1H-benzo[d]imidazole-5-carbonitrile]",3140
24,"[2H]C([2H])([2H])Oc1cc(Cl)c2[nH]ccc2c1Cc1nc2cc(C#N)ccc2[nH]1 [Example 22, 2-((7-Chloro-5-(^2H3)methoxy-1H-indol-4-yl)methyl)-1H-benzo[d]imidazole-5-carbonitrile]",1140

row,Compound,IC50 [nM]
1,[2H]C([2H])([2H])Oc1cc(Cl)c2[nH]ccc2c1C(O)c1nc2cc(C#N)ccc2[nH]1 (stereo not drawn) [Example 24-E],1110
2,"COc1cc(C)c2[nH]ccc2c1C(=O)c1nc2cc(C#N)ccc2[nH]1 [Example 25-B, 2-(5-Methoxy-7-methyl-1H-indole-4-carbonyl)-1H-benzo[d]imidazole-5-carbonitrile]",810
3,COC(C)(c1nc2cc(C#N)ccc2[nH]1)c1c(OC(C)C)cc(C)c2[nH]ccc12 (stereo not drawn) [Example 27-C],90
4,COc1cc(C)c2[nH]ccc2c1C(OC)(c1nc2cc(C#N)ccc2[nH]1)C1CC1 (stereo not drawn) [Example 27-D],20
5,Cc1cc(OC(C)C)c(C(O)(c2nc3cc(C#N)ccc3[nH]2)C(F)(F)F)c2cc[nH]c12 (stereo not drawn) [Example 33-D],310
6,"Cc1cc(C)c2[nH]ccc2c1Cc1nc2cc(C#N)ccc2[nH]1 [Example 58-C, 2-((5,7-Dimethyl-1H-indol-4-yl)methyl)-1H-benzo[d]imidazole-5-carbonitrile]",200
7,"Cc1cc(CO)c(Cc2nc3cc(C#N)ccc3[nH]2)c2cc[nH]c12 [Example 59-C, 2-((5-(Hydroxymethyl)-7-methyl-1H-indol-4-yl)methyl)-1H-benzo[d]imidazole-5-carbonitrile]",1760
8,"Cc1cc(CN)c(Cc2nc3cc(C#N)ccc3[nH]2)c2cc[nH]c12 [Example 60-B, 2-((5-(Aminomethyl)-7-methyl-1H-indol-4-yl)methyl)-1H-benzo[d]imidazole-5-carbonitrile]",5780
9,"CC(=O)NCc1cc(C)c2[nH]ccc2c1Cc1nc2cc(C#N)ccc2[nH]1 [Example 61, N-((4-((5-cyano-1H-benzo[d]imidazol-2-yl)methyl)-7-methyl-1H-indol-5-yl)methyl)acetamide]",6620
10,"Cc1cc(C)c2[nH]ccc2c1Cc1nc2cc(C#N)cc(F)c2[nH]1 [Example 62-B, 2-((5,7-Dimethyl-1H-indol-4-yl)methyl)-7-fluoro-1H-benzo[d]imidazole-5-carbonitrile]",7610
11,CCc1cc(C)c2[nH]ccc2c1Cc1nc2cc(C#N)ccc2[nH]1 [Example 63-A],160
12,Cc1cc(Cl)c(Cc2nc3cc(C#N)ccc3[nH]2)c2cc[nH]c12 [Example 63-B],260
13,C=Cc1cc(C)c2[nH]ccc2c1Cc1nc2cc(C#N)ccc2[nH]1 [Example 63-C],90
14,COCc1cc(C)c2[nH]ccc2c1Cc1nc2cc(C#N)ccc2[nH]1 [Example 63-D],1100
15,Cc1cc(C)c2[nH]ccc2c1Cc1nc2c(C)c(C#N)ccc2[nH]1 [Example 63-E],320
16,Cc1cc(C)c2[nH]ccc2c1Cc1nc2cc(C#N)cc(C)c2[nH]1 [Example 63-F],> 100000
17,Cc1cc(C)c2[nH]ccc2c1Cc1nc2cc(C#N)c(F)cc2[nH]1 [Example 63-G],5550
18,Cc1cc(C)c2[nH]ccc2c1Cc1nc2cc(C#N)c(Cl)cc2[nH]1 [Example 63-I],72600
19,COc1cc2[nH]c(Cc3c(C)cc(C)c4[nH]ccc34)nc2cc1C#N [Example 63-J],83200
20,Cc1cc(C2CC2)c(C(O)c2nc3cc(C#N)ccc3[nH]2)c2cc[nH]c12 (stereo not drawn) [Example 67-B],260
21,Cc1cc(Br)c(C(O)c2nc3cc(C#N)ccc3[nH]2)c2cc[nH]c12 (stereo not drawn) [Example 67-F],2000
22,Cc1cc(C2CC2)c(C(O)c2nc3cc(C#N)c(F)cc3[nH]2)c2cc[nH]c12 (stereo not drawn) [Example 67-H],1930
23,"CCc1cc(C)c2[nH]ccc2c1C(=O)c1nc2cc(C#N)ccc2[nH]1 [Example 78, 2-(5-Ethyl-7-methyl-1H-indole-4-carbonyl)-1H-benzo[d]imidazole-5-carbonitrile]",640
24,CCC(O)(c1nc2cc(C#N)ccc2[nH]1)c1c(C)cc(C)c2[nH]ccc12 (stereo not drawn) [Example 79-G],190

# — US9056874B2, “Complement pathway modulators and uses thereof” (NOVARTIS AG, priority 2012, dated 2015)
